# Reference: patent US11369654B2, “Application method of Dendrobium candidum in preparing medicine for treating hypertension” (Hangzhou Danhe Pharmaceutical CO., Ltd., priority 2017, dated 2022)
# Where “and” joins values, the source holds several entries; their conditions need not be identical. Equal values may be shown once.
# What was measured:
# [1] = system: Spontaneously Hypertensive Rats (SHR); experiment: Experiment 1: antihypertensive effect of Dendrobium officinale extraction methods, tail artery blood pressure; type: in vivo, rat
# Experimental: Rats: Spontaneously Hypertensive Rats (SHR), Wistar rats are used as normal controls.
# (§1) Rat Blood Pressure Measurement: BP-98A Non-invasive Tail Artery Blood Pressure Meter, Japan Soft Rotation Co., Ltd.
# Group therapy is described in the following description. Blood pressure and body weight are measured and grouped after one week of adaptive feeding in all rats. The SHR rats are divided into the water extracting group after crushing and flattening, the water extracting group after crushing, and the water extracting group after grinding into powder, all Chinese medicine groups are given 0.8 g/kg body weight of crude drug, and the amlodipine besylate tablets 0.5 mg/kg body weight are given intragastrically in amlodipine group, the hypertensive model control group is given with the same amount of saline, while the normal control group is given with the same amount of saline. Eight rats in each group were treated for 2 weeks. Blood pressure measurement: The rats are preheated at 38° C. for 5-10 minutes to avoid blood flow in the tail of the rat. The blood pressure of the rats is measured three times in a waking and quiet state, and the average value of the three measurement times is used as the blood pressure of the rats. Blood pressure is measured once a week and once 2 hours after administration.
# [2] = system: Spontaneously Hypertensive Rats (SHR); experiment: Experiment 2: hypotensive effect of samples of Embodiment 1 and 2, tail artery blood pressure; type: in vivo, rat; settings: for valley-peak ratio of Systolic Blood Pressure Reduction: 24 h divided by 2 h after administration
# Experimental: Rats: 10 weeks old Spontaneously Hypertensive Rats (SHR), Wistar rats were used as normal controls.
# as §1
# Group therapy is described in the following description. Blood pressure and body weight are measured and grouped after one week of adaptive feeding in all rats. […] Eight rats in each group are treated for 8 weeks. Blood pressure is observed for 1 week after withdrawal.
# Blood pressure measurement: The rats are preheated at 38° C. for 5-10 minutes to avoid blood flow in the tail of the rat. The blood pressure of the rats is measured three times in a waking and quiet state, and the average value of three measurement times is used as the blood pressure of the rats. Blood pressure is measured twice a week, once 2 hours after administration and once 24 hours after administration, to observe the immediate antihypertensive effect and after 24 hours antihypertensive effect (and the peak-to-valley ratio).
# The valley-peak ratio calculation of depressurization amplitude: The difference of blood pressure before treatment minus 24 hours after administration is the trough of the range of blood pressure reduction, which is the lowest point before the next administration; the difference of blood pressure before treatment and 2 hours after administration is the peak value of blood pressure reduction, that is, the maximum point of blood pressure reduction after administration. Valley value of depressurization amplitude divided by peak value of depressurization amplitude is equal to valley-peak ratio of depressurization amplitude.
# [3] = 2 h after administration, treatment for 1 week, 0.8 g/kg crude drug, amlodipine 0.5 mg/kg
# [4] = 2 h after administration, treatment for 2 weeks, 0.8 g/kg crude drug, amlodipine 0.5 mg/kg
# [5] = 2 h after administration, treatment for 2 weeks, 0.8 g/kg crude drug, amlodipine 0.5 mg/kg, listed as amlodipine
# [6] = 2 h after administration, treatment for 1 week, 0.8 g/kg crude drug, amlodipine 0.5 mg/kg, listed as amlodipine
# [7] = 2 h after administration, treatment for 3 weeks, 0.8 g/kg crude drug, amlodipine 0.5 mg/kg
# [8] = 2 h after administration, treatment for 4 weeks, 0.8 g/kg crude drug, amlodipine 0.5 mg/kg
# [9] = 2 h after administration, treatment for 5 weeks, 0.8 g/kg crude drug, amlodipine 0.5 mg/kg
# [10] = 2 h after administration, treatment for 6 weeks, 0.8 g/kg crude drug, amlodipine 0.5 mg/kg
# [11] = 2 h after administration, treatment for 7 weeks, 0.8 g/kg crude drug, amlodipine 0.5 mg/kg
# [12] = 2 h after administration, treatment for 8 weeks, 0.8 g/kg crude drug, amlodipine 0.5 mg/kg
# [13] = 2 h after administration, treatment for 8 weeks, 0.8 g/kg crude drug, amlodipine 0.5 mg/kg, listed as amlodipine
# [14] = 24 h after administration, treatment for 1 week, 0.8 g/kg crude drug, amlodipine 0.5 mg/kg
# [15] = 24 h after administration, treatment for 2 weeks, 0.8 g/kg crude drug, amlodipine 0.5 mg/kg
# [16] = 24 h after administration, treatment for 3 weeks, 0.8 g/kg crude drug, amlodipine 0.5 mg/kg
# [17] = 24 h after administration, treatment for 4 weeks, 0.8 g/kg crude drug, amlodipine 0.5 mg/kg
# [18] = 24 h after administration, treatment for 5 weeks, 0.8 g/kg crude drug, amlodipine 0.5 mg/kg
# [19] = 24 h after administration, treatment for 6 weeks, 0.8 g/kg crude drug, amlodipine 0.5 mg/kg
# [20] = 24 h after administration, treatment for 7 weeks, 0.8 g/kg crude drug, amlodipine 0.5 mg/kg
# [21] = 24 h after administration, treatment for 8 weeks, 0.8 g/kg crude drug, amlodipine 0.5 mg/kg
# [22] = 24 h after administration, treatment for 8 weeks, 0.8 g/kg crude drug, amlodipine 0.5 mg/kg, listed as amlodipine
# [23] = stopping for 1 week after 8 weeks of treatment
# [24] = stopping for 3 days after 8 weeks of treatment
# [25] = stopping for 3 days after 8 weeks of treatment, listed as amlodipine
# [26] = treatment for 1 week, 0.8 g/kg crude drug, amlodipine 0.5 mg/kg
# [27] = treatment for 2 weeks, 0.8 g/kg crude drug, amlodipine 0.5 mg/kg
# [28] = treatment for 3 weeks, 0.8 g/kg crude drug, amlodipine 0.5 mg/kg
# [29] = treatment for 4 weeks, 0.8 g/kg crude drug, amlodipine 0.5 mg/kg
# [30] = treatment for 5 weeks, 0.8 g/kg crude drug, amlodipine 0.5 mg/kg
# [31] = treatment for 6 weeks, 0.8 g/kg crude drug, amlodipine 0.5 mg/kg
# [32] = treatment for 7 weeks, 0.8 g/kg crude drug, amlodipine 0.5 mg/kg
# [33] = treatment for 8 weeks, 0.8 g/kg crude drug, amlodipine 0.5 mg/kg
compound,measurement,setting,value
"CCOC(=O)C1=C(COCCN)NC(C)=C(C(=O)OC)C1c1ccccc1Cl (stereo not drawn) [Amlodipine, amlodipine besylate]",diastolic blood pressure,[1]; [3],142.6 ± 5.78 mmHg
same,systolic blood pressure,[1]; [3],173.8 ± 5.26 mmHg
same,diastolic blood pressure,[1]; [4],143.7 ± 4.28 mmHg
same,systolic blood pressure,[1]; [4],175.5 ± 4.48 mmHg
same,diastolic blood pressure,[1]; [5],143.7±4.28 mmHg
same,systolic blood pressure,[1]; [5],175.5±4.48 mmHg
same,diastolic blood pressure,[1]; before treatment,157.4 ± 5.67 mmHg
same,systolic blood pressure,[1]; before treatment,206.3 ± 6.26 mmHg
same,diastolic blood pressure,[2]; [3],143.2 mmHg
same,systolic blood pressure,[2]; [3],175.1 mmHg
same,diastolic blood pressure,[2]; [6],143.2±6.41 mmHg
same,systolic blood pressure,[2]; [6],175.1±4.44 mmHg
same,diastolic blood pressure,[2]; [4],145.5 mmHg
same,systolic blood pressure,[2]; [4],178.3 mmHg
same,diastolic blood pressure,[2]; [7],144.7 mmHg
same,systolic blood pressure,[2]; [7],177.8 mmHg
same,diastolic blood pressure,[2]; [8],146.2 mmHg
same,systolic blood pressure,[2]; [8],175.7 mmHg
same,diastolic blood pressure,[2]; [9],137.6 mmHg
same,systolic blood pressure,[2]; [9],174.3 mmHg
same,diastolic blood pressure,[2]; [10],143.1 mmHg
same,systolic blood pressure,[2]; [10],178.8 mmHg
same,diastolic blood pressure,[2]; [11],139.9 mmHg
same,systolic blood pressure,[2]; [11],175.8 mmHg
same,diastolic blood pressure,[2]; [12],144.7 mmHg
same,systolic blood pressure,[2]; [12],178.1 mmHg
same,diastolic blood pressure,[2]; [13],144.7±3.43 mmHg
same,systolic blood pressure,[2]; [13],178.1±2.67 mmHg
same,diastolic blood pressure,[2]; [14],162.3 mmHg
same,systolic blood pressure,[2]; [14],200.7 mmHg
same,diastolic blood pressure,[2]; [15],158.6 mmHg
same,systolic blood pressure,[2]; [15],202.6 mmHg
same,diastolic blood pressure,[2]; [16],159.0 mmHg
same,systolic blood pressure,[2]; [16],201.6 mmHg
same,diastolic blood pressure,[2]; [17],161.3 mmHg
same,systolic blood pressure,[2]; [17],209.0 mmHg
same,diastolic blood pressure,[2]; [18],161.8 mmHg
same,systolic blood pressure,[2]; [18],207.8 mmHg
same,diastolic blood pressure,[2]; [19],165.0 mmHg
same,systolic blood pressure,[2]; [19],202.8 mmHg
same,diastolic blood pressure,[2]; [20],156.3 mmHg
same,systolic blood pressure,[2]; [20],199.5 mmHg
same,diastolic blood pressure,[2]; [21],154.3 mmHg
same,systolic blood pressure,[2]; [21],202.0 mmHg
same,diastolic blood pressure,[2]; [22],154.3±5.50 mmHg
same,systolic blood pressure,[2]; [22],202.0±5.88 mmHg
same,diastolic blood pressure,[2]; before treatment,156.0 mmHg
same,systolic blood pressure,[2]; before treatment,209.8 mmHg and 209.8 ± 8.92 mmHg
same,diastolic blood pressure,[2]; [23],155.4 mmHg
same,systolic blood pressure,[2]; [23],214.2 mmHg
same,diastolic blood pressure,[2]; [24],158.7 mmHg
same,systolic blood pressure,[2]; [24],205.4 mmHg
same,diastolic blood pressure,[2]; [25],158.7±2.79 mmHg
same,systolic blood pressure,[2]; [25],205.4±1.85 mmHg
same,2-hour hypotensive amplitude (peak of systolic blood pressure reduction),[2]; [26],34.7 mmHg
same,24-hour hypotensive amplitude (trough of systolic blood pressure reduction),[2]; [26],9.1 mmHg
same,valley-peak ratio of Systolic Blood Pressure Reduction,[2]; [26],0.26
same,2-hour hypotensive amplitude (peak of systolic blood pressure reduction),[2]; [27],31.5 mmHg
same,24-hour hypotensive amplitude (trough of systolic blood pressure reduction),[2]; [27],7.2 mmHg
same,valley-peak ratio of Systolic Blood Pressure Reduction,[2]; [27],0.23
same,2-hour hypotensive amplitude (peak of systolic blood pressure reduction),[2]; [28],32.0 mmHg
same,24-hour hypotensive amplitude (trough of systolic blood pressure reduction),[2]; [28],8.2 mmHg
same,valley-peak ratio of Systolic Blood Pressure Reduction,[2]; [28],0.26
same,2-hour hypotensive amplitude (peak of systolic blood pressure reduction),[2]; [29],34.1 mmHg
same,24-hour hypotensive amplitude (trough of systolic blood pressure reduction),[2]; [29],0.8 mmHg
same,valley-peak ratio of Systolic Blood Pressure Reduction,[2]; [29],0.02
same,2-hour hypotensive amplitude (peak of systolic blood pressure reduction),[2]; [30],35.5 mmHg
same,24-hour hypotensive amplitude (trough of systolic blood pressure reduction),[2]; [30],2.0 mmHg
same,valley-peak ratio of Systolic Blood Pressure Reduction,[2]; [30],0.06
same,2-hour hypotensive amplitude (peak of systolic blood pressure reduction),[2]; [31],31.0 mmHg
same,24-hour hypotensive amplitude (trough of systolic blood pressure reduction),[2]; [31],7.0 mmHg
same,valley-peak ratio of Systolic Blood Pressure Reduction,[2]; [31],0.23
same,2-hour hypotensive amplitude (peak of systolic blood pressure reduction),[2]; [32],34.0 mmHg
same,24-hour hypotensive amplitude (trough of systolic blood pressure reduction),[2]; [32],10.3 mmHg
same,valley-peak ratio of Systolic Blood Pressure Reduction,[2]; [32],0.30
same,2-hour hypotensive amplitude (peak of systolic blood pressure reduction),[2]; [33],31.7 mmHg
same,24-hour hypotensive amplitude (trough of systolic blood pressure reduction),[2]; [33],7.8 mmHg
same,valley-peak ratio of Systolic Blood Pressure Reduction,[2]; [33],0.25
